Test system: C6 glioma tumor
Test: Anti-tumor effect in C6 glioma-bearing rats, tumor volume and appearance (Example 28)
Type: in vivo, Sprague Dawley (SD) rats
Description: The anti-tumor effect of DP-BFA was evaluated by monitoring tumor volume and appearance in a model system of C6 glioma-bearing rats. Sprague Dawley (SD) rats were inoculated with 2.5×10^5 C6 glioma cells in 5 μl PBS as follows. Rats were mounted into a stereotactic head holder in a flat-skull position. After reflections of the periosteum, a burr hole was preformed with a 1 mm drill in the following coordinates: bregma—1.0, 3.50 mm lateral from the midline on the left side, and at a depth of 3.50 mm. The cell suspension was manually injected at a depth of 3.50 mm using a 10 μl Hamilton syringe.
The pterigo-palatina artery was legated, and the common carotid artery was clamped at the time of infusion.
Five days after the inoculation of the C6 tumor cells, the rats were anesthetized with Ketamin/xylazin (1:1) 0.1 ml/100 grams body weight, perfused with saline and fixed with 4% Formaldehyde solution. Brains were removed and cryoprotected in a sucrose solution for 48 h. The brains were then sliced in coronal section, stained with Haematoxylin-Eosine and underwent pathology evaluation.

2-(4′-Hexadecanoyloxy)ethoxyethyl phosphate [3,12-DEG-PO4]
anti-tumor effect, invasiveness and rate of growth (in words) (rat, in vivo): significant anti-tumor effect | Tumor volume (single dose 5 to 20 μM, 72 h post inoculation, vehicle 8.1±2.2): 1.6±0.2 mm^3

— US7186703B2, “Derivatives of branched-chain lipophilic molecules and uses thereof” (D-Pharm Ltd., priority 2000, dated 2007)
